Assays:
cultured cardiac cells = experiment: Anti-hypoxia action on cultured cardiac cells (inhibition of CPK leakage); assay type: cell-based, rat (newborn Crj-SD); details: Rattus norvegicus, read-out: Anti-hypoxia Activity (%), rate of inhibition on CPK leakage
Procedure: Anti-hypoxia action of the compounds of the present invention were investigated through studying their action in connection with the protection of cardiomuscular cells.
Primary culture of cardiac cells was prepared from newborn Crj-SD rats (2-3 day old) and used in the experiment. The primary culture was prepared according to the method described by Jones R. L. et al., Am. J. Pathol., 135, 541-556, 1989. Thus, cardiac cells were isolated from ventricle muscle using collagenase and pancreatin, and then the cardiac cells were separated and purified from cell debris, erythrocytes, and fibroblasts by means of Percoll density-gradient centrifugation. The cells were spread on a culture plate at a ratio of 2-3×10^5 cells/3.5 cm plate, and the cells were cultured for two days in Dulbecco's Modified Eagle's Medium (DMEM) containing 10% Fetal Bovine Serum (FBS) in an incubator (5% CO2 /95% Air) kept at 37° C. After sufficient growth of the cardiac cells, the culture medium was changed to DMEM free from FBS, and the culture was continued additional one day. The cells thus obtained were used in the experiment.
Hypoxia was generated using Gas Pak™ Anaerobic Chamber (BBL) which produces hypoxia by capturing residual O2 and changing it into H2 0 by the action of a H2 /CO2 generating bag and catalyst. The cardiac cell plate, wherein the culture medium had been changed to DMEM which is free from FBS and glucose, was set in the chamber, and the chamber was placed in an incubator. Anti-hypoxia activity of test compounds was determined by measuring inhibition rate of leakage of creatine phosphokinase activity into the culture medium.
The compounds tested were all dissolved in DMSO using HCO-50 as a solubilizing agent (DMSO:HCO-50=9:1), and directly charged onto the culture plate. The final concentrations of DMSO and HCO-50 in the culture medium were adjusted to 0.09% and 0.01% respectively. CPK activity was measured by colorimetry (Wako Kit) modified from Oliver method.
The numerical values in the table show cardiac cells-protecting activity of test compounds in terms of the rate (%) of inhibition on CPK leakage determined in connection with the test compounds when the amount of the CPK leakage for negative control (no addition of the test compounds) was defined as 100%.

Calcium Channel = Calcium Channel (Oryctolagus cuniculus, UniProt P15381); experiment: Calcium channel antagonism: relaxing action on extracted blood vessel (rabbit femoral artery, contracture by 50 mM KCl); details: 50 mM KCl contracture, 50% of maximum relaxing (0.1 mM papaverine)
Sequence of Calcium Channel (P15381 whole entry): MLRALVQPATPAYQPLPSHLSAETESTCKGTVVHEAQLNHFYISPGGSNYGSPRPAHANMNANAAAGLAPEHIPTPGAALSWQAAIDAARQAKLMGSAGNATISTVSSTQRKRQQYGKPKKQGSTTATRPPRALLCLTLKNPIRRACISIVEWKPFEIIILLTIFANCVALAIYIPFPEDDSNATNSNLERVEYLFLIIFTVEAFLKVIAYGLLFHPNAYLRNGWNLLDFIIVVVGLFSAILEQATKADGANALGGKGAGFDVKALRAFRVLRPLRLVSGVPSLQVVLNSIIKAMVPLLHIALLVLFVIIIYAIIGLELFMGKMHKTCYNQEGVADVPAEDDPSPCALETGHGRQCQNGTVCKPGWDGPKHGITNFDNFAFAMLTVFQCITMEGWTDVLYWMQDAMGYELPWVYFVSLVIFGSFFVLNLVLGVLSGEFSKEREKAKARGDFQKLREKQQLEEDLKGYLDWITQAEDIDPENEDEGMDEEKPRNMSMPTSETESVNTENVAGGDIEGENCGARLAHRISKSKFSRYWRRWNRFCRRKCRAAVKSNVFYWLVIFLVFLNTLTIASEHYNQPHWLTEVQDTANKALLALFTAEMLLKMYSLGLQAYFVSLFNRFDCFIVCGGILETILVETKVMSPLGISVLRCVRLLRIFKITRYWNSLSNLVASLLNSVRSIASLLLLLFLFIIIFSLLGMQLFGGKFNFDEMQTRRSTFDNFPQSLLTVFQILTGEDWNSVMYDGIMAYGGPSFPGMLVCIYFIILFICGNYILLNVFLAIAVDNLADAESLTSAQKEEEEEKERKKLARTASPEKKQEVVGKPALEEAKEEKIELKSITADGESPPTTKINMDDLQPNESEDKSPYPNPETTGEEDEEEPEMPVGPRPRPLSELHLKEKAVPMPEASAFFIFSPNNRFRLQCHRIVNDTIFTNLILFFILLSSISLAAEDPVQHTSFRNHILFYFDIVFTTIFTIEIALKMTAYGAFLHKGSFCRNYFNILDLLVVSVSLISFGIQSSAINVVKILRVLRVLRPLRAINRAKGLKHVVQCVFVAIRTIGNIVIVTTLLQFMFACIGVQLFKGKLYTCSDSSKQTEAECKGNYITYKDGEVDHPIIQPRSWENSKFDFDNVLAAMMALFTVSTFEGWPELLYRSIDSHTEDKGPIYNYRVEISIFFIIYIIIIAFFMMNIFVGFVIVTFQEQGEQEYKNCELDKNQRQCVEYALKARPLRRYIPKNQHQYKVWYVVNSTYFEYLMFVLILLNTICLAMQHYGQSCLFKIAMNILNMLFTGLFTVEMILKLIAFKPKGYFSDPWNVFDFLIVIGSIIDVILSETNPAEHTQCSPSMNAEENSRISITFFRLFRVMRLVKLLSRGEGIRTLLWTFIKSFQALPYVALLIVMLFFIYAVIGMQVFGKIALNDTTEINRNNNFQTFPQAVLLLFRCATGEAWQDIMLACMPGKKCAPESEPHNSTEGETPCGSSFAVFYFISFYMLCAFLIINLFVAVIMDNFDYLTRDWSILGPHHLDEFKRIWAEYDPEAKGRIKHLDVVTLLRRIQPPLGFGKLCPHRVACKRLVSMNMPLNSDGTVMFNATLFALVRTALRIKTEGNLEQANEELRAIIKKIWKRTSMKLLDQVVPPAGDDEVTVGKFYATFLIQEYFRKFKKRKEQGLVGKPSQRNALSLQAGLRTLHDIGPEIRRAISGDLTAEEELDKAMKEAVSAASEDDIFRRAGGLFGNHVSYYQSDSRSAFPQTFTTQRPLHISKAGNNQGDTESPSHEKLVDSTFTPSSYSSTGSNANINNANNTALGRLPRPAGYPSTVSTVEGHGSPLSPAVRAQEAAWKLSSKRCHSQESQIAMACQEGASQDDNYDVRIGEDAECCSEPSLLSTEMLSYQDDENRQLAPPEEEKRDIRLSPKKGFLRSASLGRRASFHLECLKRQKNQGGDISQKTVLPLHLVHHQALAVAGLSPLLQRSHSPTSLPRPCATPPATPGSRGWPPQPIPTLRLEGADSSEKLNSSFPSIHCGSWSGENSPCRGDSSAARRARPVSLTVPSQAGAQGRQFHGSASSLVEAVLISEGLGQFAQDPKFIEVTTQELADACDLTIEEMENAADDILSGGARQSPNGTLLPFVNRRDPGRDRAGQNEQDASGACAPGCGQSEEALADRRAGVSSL
Sequence of Calcium Channel (P13806 27-960 partner limits assumed): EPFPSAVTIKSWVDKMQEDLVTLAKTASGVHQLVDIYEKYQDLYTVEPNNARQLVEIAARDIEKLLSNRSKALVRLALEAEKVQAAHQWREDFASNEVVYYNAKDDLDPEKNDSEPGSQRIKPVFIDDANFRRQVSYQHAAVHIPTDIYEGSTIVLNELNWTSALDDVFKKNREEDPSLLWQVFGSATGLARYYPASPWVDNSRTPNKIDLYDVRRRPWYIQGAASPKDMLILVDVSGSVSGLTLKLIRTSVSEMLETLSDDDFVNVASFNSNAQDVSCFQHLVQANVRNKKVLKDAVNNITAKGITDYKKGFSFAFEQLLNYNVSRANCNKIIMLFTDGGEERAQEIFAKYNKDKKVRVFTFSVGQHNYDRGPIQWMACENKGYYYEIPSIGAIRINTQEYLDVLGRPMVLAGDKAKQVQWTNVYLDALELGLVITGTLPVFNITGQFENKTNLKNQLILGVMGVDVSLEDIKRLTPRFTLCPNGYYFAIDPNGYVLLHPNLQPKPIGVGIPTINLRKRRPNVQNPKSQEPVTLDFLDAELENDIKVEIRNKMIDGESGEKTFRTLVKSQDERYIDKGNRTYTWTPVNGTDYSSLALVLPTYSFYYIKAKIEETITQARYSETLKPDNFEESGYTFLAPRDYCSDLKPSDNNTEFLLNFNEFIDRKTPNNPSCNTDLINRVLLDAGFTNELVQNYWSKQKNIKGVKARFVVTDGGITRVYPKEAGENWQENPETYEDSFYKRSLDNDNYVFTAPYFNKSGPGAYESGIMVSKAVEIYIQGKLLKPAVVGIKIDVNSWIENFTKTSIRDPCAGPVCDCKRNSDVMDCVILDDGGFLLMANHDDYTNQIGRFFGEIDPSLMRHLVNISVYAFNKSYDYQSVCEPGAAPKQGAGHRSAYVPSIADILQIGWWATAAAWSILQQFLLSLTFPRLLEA
Sequence of Calcium Channel (P13806 961-1106 partner limits assumed): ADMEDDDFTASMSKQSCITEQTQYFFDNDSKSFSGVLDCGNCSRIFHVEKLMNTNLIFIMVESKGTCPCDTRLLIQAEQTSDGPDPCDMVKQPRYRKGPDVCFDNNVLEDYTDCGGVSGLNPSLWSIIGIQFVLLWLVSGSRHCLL
Procedure: Calcium Channel Antagonism and […] Action (Relaxing Action on Extracted Blood Vessel)
Male rabbits weighing 2-3 kg (Rabiton, Japanese albino species) were anesthetized through intravenous administration of pentobarbital (50 mg/kg), and sacrificed by bloodletting through dissection of axillary artery. Femoral artery was extracted, connective tissue surrounding the artery was removed, and helical specimen was prepared. The specimen was suspended in an organ bath (20 cc) filled with 37° C. Krebs-Henseleit nutritious solution and bubbled with a 95% O2 +5% CO2 mixed gas. 1.5 g of resting tension was loaded on femoral artery. Isometric change of the tension of the specimen was recorded on a thermal recorder (Nippon Koden WT-685G) via F-D pickup Nippon Koden (TB611T) and Preamp (Nippon Koden). Ca-antagonism of a test compound was evaluated by observing relaxing action due to accumulative addition of the compound on the contracture caused by the application of 50 mM KCl. α-Blocking action was similarly evaluated by observing such relaxing action on the contracture caused by the application of 1 μM norepinephrine (NE). […] The concentration of a given compound, which is necessary for giving 50% of the maximum relaxing (IC50), was determined using the above system.

[1] = tested on: spontaneous hypertensive rats (SHR); experiment: Action on blood pressure and heart rate of not-anesthetized SHR; assay type: in vivo, rat (SHR); details: 30 mg/kg PO, 2 and 4 hours after administration; for Antihypertensive action (%): decrease in SBP
Procedure: Action of the compounds of the invention on blood pressure and heart rate of not-anesthetized spontaneous hypertensive rats (SHR)
Male Japanese Charles-River SHR (13-17 week old) were used in the experiment (S. Matsuda, J. Pharmacol. Method, 17 361, 1987). Systolic blood pressure (SBP) and heart rate of the animals were measured non-invasively (indirectly) using hemadynamometer for caudal artery pressure (6 channel type) before the administration of test compounds, at 2 and 4 hours after administration. Test compounds were dissolved in DMSO (100%) and orally administered. Decreased values in SBP and heart rate determined 2 and 4 hours after administration when compared with those determined before administration are shown in percentage (%) in the following table.

[2] = tested on: cardiac muscle damage due to ischemia; experiment: Anti-necrosis activity (left coronary ligation and reperfusion, CPK retention in left ventricle); assay type: in vivo, rat (Wistar); details: Rattus norvegicus; for inhibition in vivo at 0.3 mg/kg: 0.3 mg/kg iv
Procedure: Male Sic Wistar rats weighing 200-250 g were anesthetized with urethane (1 g/kg), and ramus descendens of the left coronaria was ligated for 20 minutes and then reperfused according to the method described by Hock et al (Hock, […]., Am. Heart J., 109 222, 1985). […] For three hours after the reperfusion, the rats were subjected to heat insulation on a warming mat. After 120 minutes, the hearts were extracted, and the free walls of the left ventricles were frozen and storred until determination of CPK activity. CPK activity was determined according to the method of Bernauer, W. (Arch. int. Pharmacodyn., 231 90, 1978) after minor modification. Thus, the extracted tissue was homogenized in 10 volumes of 0.1M Tris/HCl (pH 7.5) containing 1 mM mercaptoethanol and centrifuged at 20,000 g for 20 minutes. The supernatant was used for determination of CPK activity, which was conducted using a commercially available kit (CPK-Test, Wako). CPK was determined using serum CPK as a standard and expressed with "U/mg protein". […] The degree of the inhibition was measured in terms of the CPK activity retained in the left ventricle. The test results are shown in Table 7, wherein percentage of the retention (%) at each dose was calculated based on the following equation.

Row | SMILES | inhibition at 10 µM (cultured cardiac cells) [%] | inhibition at 1 µM (cultured cardiac cells) [%] | further results
1 | COc1ccc([C@@H]2Sc3cc(Cl)ccc3N(CCCN3CCN(c4cc(OC)c(OC)c(OC)c4)CC3)C(=O)[C@@H]2OC(C)=O)cc1 [Compound I-32, (2S-cis)-3-Acetoxy-5-[3-(4-(3,4,5trimethoxyphenyl) - 1-piperazinyl)propyl]-2,3-dihydro-2-(4methoxyphenyl) -8-chloro-1,5-benzothiazepin-4 (5H)-one] | 66.1 |  | 
2 | COc1ccc([C@@H]2Sc3cc(Cl)ccc3N(CCN3CCN(c4ccc(F)cc4)CC3)C(=O)[C@@H]2OC(C)=O)cc1 (relative stereo) [Compound I-13, 3-Acetoxy-5-[2-(4-(4-fluorophenyl)-piperazinyl)ethyl]-2,3-dihydro-2-(4-methoxyphenyl)-8-chloro-1,5-benzothiazepin-4(5H)-one] | 61 | 15 | 
3 | COc1ccc([C@@H]2Sc3cc(Cl)ccc3N(CCCN3CCN(C(=O)c4ccco4)CC3)C(=O)[C@@H]2OC(C)=O)cc1 (relative stereo) [Compound I-7, 3-Acetoxy-5-[3-(4-(2-furoyl)-1-piperazinyl)propyl]-2,3-dihydro-2-(4-methoxyphenyl)-8-chloro-1,5-benzothiazepin-4(5H)-one] |  | 36 | 
4 | COc1ccc([C@@H]2Sc3cc(Cl)ccc3N(CCCN3CCN(c4ccc(OC)cc4)CC3)C(=O)[C@@H]2OC(C)=O)cc1 [Compound I-29, (2S-cis)-3-Acetoxy-5-[3-(4-(4methoxyphenyl) -1-piperazinyl)propyl]methoxyphenyl-8-chloro-1,5-benzothiazepin-4(5H)-one] |  | 30 | 
5 | COc1ccc([C@@H]2Sc3cc(Cl)ccc3N(CCCCCN3CCN(c4ccccc4OC)CC3)C(=O)[C@@H]2OC(C)=O)cc1 [Compound I-34, (2S-cis)-3-Acetoxy-5-[5-(4-(2-methoxyphenyl)-1-piperazinyl)pentyl]-2,3-dihydro-2-(4-methoxyphenyl)-8-chloro-l,5-benzothiazepin-4(5H)-one] | 80 |  | 
6 | COc1ccc([C@@H]2Sc3cc(Cl)ccc3N(CCN3CCC(c4ccccc4)CC3)C(=O)[C@@H]2OC(C)=O)cc1 (relative stereo) [Compound I-11] |  |  | IC50 (Calcium Channel): 200 nM
7 | COc1ccc([C@@H]2Sc3cc(Cl)ccc3N(CCCN3CCC(c4ccccc4)(c4ccccc4)CC3)C(=O)[C@@H]2OC(C)=O)cc1 (relative stereo) [Compound I-14, 3-Acetoxy-5-[3-(4,4-diphenyl-1piperizinyl)propyl]-2,3-dihydro-2-(4-methoxyphenyl)-8-chloro-1,5-benzothiazepin-4(5H)-one] | 83.6 |  | Decrease of heart rate (%) [1]: 9.8%; Antihypertensive action (%) [1]: 14%; IC50 (Calcium Channel): 100 nM
8 | COc1ccc([C@@H]2Sc3cc(Cl)ccc3N(CCCCN3CCN(c4ccccc4OC)CC3)C(=O)[C@@H]2OC(C)=O)cc1 [Compound I-33, (2S-cis)-3-Acetoxy-5-[4-(4-(2-methoxyphenyl)-1-piperazinyl)butyl]-2,3-dihydro-2-(4-methoxyphenyl)-8-chloro-1,5-benzothiazepin-4(5H)-one] | 87 | 36.9 | 
9 | COc1ccc([C@@H]2Sc3cc(Cl)ccc3N(CCCN3CCN(C(c4ccccc4)c4ccccc4)CC3)C(=O)[C@@H]2OC(C)=O)cc1 [Compound I-23, (2S-cis)-3-Acetoxy-5-[3-(4-(benzhydryl)-piperazinyl)propyl]-2,3-dihydro-2-(4-methoxyphenyl)-8-chloro-1,5-benzothiazepin-4(5H)-one] | 87 | 36.4 | Decrease of heart rate (%) [1]: 12%; Antihypertensive action (%) [1]: 16%; inhibition in vivo at 0.3 mg/kg [2]: 45%
10 | COc1ccc([C@@H]2Sc3cc(Cl)ccc3N(CCCN3CCN(c4ccc(Cl)cc4)CC3)C(=O)[C@@H]2OC(C)=O)cc1 [Compound I-25, (2S-cis)-3-Acetoxy-5-[3-(4-(4-chlorophenyl)-1-piperazinyl)propyl]-2,3-dihydro-2-(4-methoxyphenyl)-8-chloro-l,5-benzothiazepin-4(5H)-one] | 89 | 25.2 | 
11 | COc1ccc([C@@H]2Sc3cc(Cl)ccc3N(CCCN3CCN(c4ccc(F)cc4)CC3)C(=O)[C@@H]2OC(C)=O)cc1 (relative stereo) [Compound I-12, 3-Acetoxy-5-[3-(4-(4-fluorophenyl)-piperazinyl)propyl]-2,3-dihydro-2-(4-methoxyphenyl)-8-chloro-1,5-benzothiazepin-4(5H)-one] | 87 | 10 | inhibition in vivo at 1 mg/kg ([2]; 1 mg/kg iv): 23%
12 | COc1ccc([C@@H]2Sc3cc(Cl)ccc3N(CCCN3CCN(C(c4ccc(Cl)cc4)c4ccc(Cl)cc4)CC3)C(=O)[C@@H]2OC(C)=O)cc1 [Compound I-24, (2S-cis)-3-Acetoxy-5-[3-(4-(4-dichlorobenzhydryl)-1-piperazinyl)propyl]-2,3-dihydro-2-(4-methoxyphenyl)-8-chloro-l,5-benzothiazepin-4(5H)-one] | 88 | 14.1 | inhibition in vivo at 0.3 mg/kg [2]: 35%
13 | COc1ccc([C@@H]2Sc3cc(Cl)ccc3N(CCCN3CCN(C(c4ccccc4)c4ccc(Cl)cc4)CC3)C(=O)[C@@H]2OC(C)=O)cc1 (relative stereo) [Compound I-16, 3-Acetoxy-5-[3-(4-(4-chlorobenzhydryl)-piperazinyl)propyl]-2,3-dihydro-2-(4-methoxyphenyl)-8-chloro-1,5-benzothiazepin-4(5H)-one] | 57 | 18.4 | Decrease of heart rate (%) [1]: 15%; Antihypertensive action (%) [1]: 19%; IC50 (Calcium Channel): 240 nM
14 | COc1ccc([C@@H]2Sc3cc(Cl)ccc3N(CCCN3CCN(Cc4ccc5c(c4)OCO5)CC3)C(=O)[C@@H]2OC(C)=O)cc1 (relative stereo) [Compound I-5] | 66 |  | IC50 (Calcium Channel): 250 nM
15 | COc1ccc([C@@H]2Sc3cc(Cl)ccc3N(CCCN3CCN(c4ccccn4)CC3)C(=O)[C@@H]2OC(C)=O)cc1 (relative stereo) [Compound I-3, 3-Acetoxy-5-[3-(4-(2-piridyl)1-piperazinyl)propyl]-2,3-dihydro-2-(4-methoxyphenyl)-8-chloro-1,5-benzothiazepin-4(5H)-one] |  | 34 | 
16 | COc1ccc([C@@H]2Sc3cc(Cl)ccc3N(CCCN3CCN(c4ccccc4)CC3)C(=O)[C@@H]2OC(C)=O)cc1 (relative stereo) [Compound I-1, 3-Acetoxy-5-[3-(4,phenyl-1-piperazinyl)propyl]-2,3-dihydro-2-(4-metoxyphenyl)-8-chloro-1,5-benzothiazepin-4(5H)-one] | 66 |  | 

From patent US5462936A, “Benzothiazepine derivatives” (Shionogi & Co., Ltd., priority 1991, dated 1995)
